This assay deals with T1, Androgen Receptor (AR) protein (Homo sapiens, UniProt P10275, T878A).
T1 construct: endogenous in cells; host or cells: LNCaP
The assay is described as follows: Androgen Receptor (AR) protein degradation assay in LNCaP cells, western blotting. The format is cell-based. The settings on record: 20 h; for inhibition at 0.01 µM: 0.01 μM compound; for inhibition at 0.1 µM: 0.1 μM compound; for inhibition at 1 µM: 1 μM compound. The method, then: Experimental Example 1: Androgen Receptor (AR) Protein Degradation Assay
After treating LNCaP cells with the synthesized Example compound, the amount of AR protein present in the cells was measured. The amount of AR protein was measured using western blotting detection method. The protocol of the experiment using LNCaP cells was as follows:
[Culture] LNCaP cells were resuspended in RPMI1640 MEDIUM (Hyclone, SH30027.01), 10% FBS (Hyclone, SV30207.02), and 1% Penicillin-streptomycin (Welgene, LS 202-02) media to be 3×10^5/mL. Then, 1 mL each was seeded in a 12-well plate. After that, they were cultured for 3 days.
[Compound treatment] 10 μl of 0.1, 1, 10, and 100 μM compound, which is the final compound treatment concentration and a 100× stock of 0.001, 0.01, 0.1, and 1 μM, was added in 1 ml media of each well, and 20 hours later, the cells were harvested.
[Cell Lysis] Cell pellets were suspended using 1% SDS lysis buffer (50 mM Tris, 1 mM EDTA, 1% SDS, pH 8.0, 0.5 mM PMSF, 1× Protease/Phosphatase inhibitor Cocktail (Cell Signaling Technology, 5872s)), and sonication (70% AMP, 5 cycles (30 sec ON/59 sec OFF)) was performed. Cell lysate was obtained after centrifugation at 4° C., 15000 g, for 20 minutes.
[Protein quantification] A BCA protein assay (SMART™ BCA Protein Assay Kit, iNtRON Biotechnology, 21071) was performed using a 96-well microplate. After adding 5 μl cell lysate and 5 μl 1% SDS lysis buffer to each well of the 96-well plate, 200 μl of BCA reagent (Reagent A:Reagent B=50:1) was additionally added. After incubation at 37° C. for 30 minutes, it was cooled at room temperature for 10 minutes. Then, absorbance was measured at a wavelength of 562 nm. The unknown protein concentration was measured using a BSA standard curve (0, 0.125, 0.25, 0.5, 1, 2 mg/ml). Western blotting samples were prepared by mixing cell lysate, 1% SDS lysis buffer, 4× Bolt™ LDS Sample buffer (Invitrogen, B0008), and 10× Bolt™ Sample Reducing Agent (Invitrogen, B0009) and boiling the mixture at 70° C. for 10 minutes.
[Electrophoresis] After loading 8 μg of protein sample into each well of Bolt™ 4 to 12%, Bis-Tris, 1.0 mm Mini Protein Gel, 17-well (Invitrogen, NW04127BOX), Bolt™ MES SDS Running Buffer (Invitrogen, B0002) was used for electrophoresis at 200V (constant V) for 50 minutes.
[Transfer] Using electrophoresis gel and Trans-Blot® Turbo™ Transfer Starter System (Bio-RAD, #17001918, Mini Nitrocellulose), transfer proceeded for 15 minutes under the condition of 1.3A (Constant A) and 25V (Limit V). To confirm protein transfer, 15 ml of Ponceau S solution (Sigma, P7170-1L) was used for staining for 1 minute, followed by washing to confirm the degree of transfer.
[Blocking] Membranes for AR detection were blocked for 45 minutes with 5% skim milk/0.2% TBST (Skim milk: BD, 232100/20× TBS: Biosesang, TR2008-100-00/10% Tween 20 Solution: Bio-RAD, #161-0781). Membranes for GAPDH and β-actin detection were blocked for 45 minutes with Odyssey blocking buffer: 0.1% TBST=1:1 (Odyssey blocking buffer: Li-COR Biosciences, 927-50000).
[Antibody and detection] The primary AR antibody (Androgen Receptor: CST, 5153s) was mixed with 5% skim milk/0.2% TBST at a ratio of 1:1000 and attached for 3 hours at room temperature. Primary β-actin antibody (GeneTex, 629630) was mixed with 5% BSA/0.2% TBST at a ratio of 1:2000 and attached for 3 hours at room temperature. Primary GAPDH antibody (GeneTex, 100118) was mixed with 5% BSA/0.2% TBST at a ratio of 1:2000 and attached for 3 hours at room temperature. After 3 hours, it was washed 3 times every 5 minutes using TBST (0.2% Tween 20). Anti-rabbit IgG, HRP-linked Antibody (CST, 7074s), secondary antibody for the AR antibody was mixed with 5% skim milk/0.2% TBST at a ratio of 1:5000 and attached for 45 minutes at room temperature. […]
On the technique in general: A western blot detects proteins with antibodies after separation by electrophoresis.

This is an account of results in patent publication US12122763B2, “Substituted piperidines for androgen receptor degradation” (UBIX THERAPEUTICS, INC., priority 2020, dated 2024).

T1 sequence (P10275 whole entry T878A): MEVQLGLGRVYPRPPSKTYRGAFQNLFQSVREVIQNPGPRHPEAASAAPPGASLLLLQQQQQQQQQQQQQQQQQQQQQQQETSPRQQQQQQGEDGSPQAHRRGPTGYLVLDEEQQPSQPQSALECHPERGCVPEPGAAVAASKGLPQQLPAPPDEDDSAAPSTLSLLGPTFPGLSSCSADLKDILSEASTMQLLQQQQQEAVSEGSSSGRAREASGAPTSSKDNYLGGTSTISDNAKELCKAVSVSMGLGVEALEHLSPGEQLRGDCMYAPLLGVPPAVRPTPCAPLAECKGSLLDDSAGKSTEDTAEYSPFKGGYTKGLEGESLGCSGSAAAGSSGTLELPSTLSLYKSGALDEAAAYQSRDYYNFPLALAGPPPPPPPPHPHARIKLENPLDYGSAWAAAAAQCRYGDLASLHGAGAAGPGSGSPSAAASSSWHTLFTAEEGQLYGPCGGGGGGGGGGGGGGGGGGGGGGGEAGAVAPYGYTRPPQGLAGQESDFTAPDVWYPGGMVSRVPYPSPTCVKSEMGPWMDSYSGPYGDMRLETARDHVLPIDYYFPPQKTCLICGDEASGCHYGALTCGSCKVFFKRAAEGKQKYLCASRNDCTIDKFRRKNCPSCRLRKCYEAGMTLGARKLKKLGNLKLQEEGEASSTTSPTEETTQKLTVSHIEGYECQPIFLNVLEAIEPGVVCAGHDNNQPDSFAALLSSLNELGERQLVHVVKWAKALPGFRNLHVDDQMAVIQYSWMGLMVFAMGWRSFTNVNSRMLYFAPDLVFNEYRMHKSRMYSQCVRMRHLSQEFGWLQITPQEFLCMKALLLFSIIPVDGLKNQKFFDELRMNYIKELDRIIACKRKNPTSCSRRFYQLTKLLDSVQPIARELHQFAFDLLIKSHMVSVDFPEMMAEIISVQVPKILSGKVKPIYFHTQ
T1 sequence (Q96SW2 whole entry partner): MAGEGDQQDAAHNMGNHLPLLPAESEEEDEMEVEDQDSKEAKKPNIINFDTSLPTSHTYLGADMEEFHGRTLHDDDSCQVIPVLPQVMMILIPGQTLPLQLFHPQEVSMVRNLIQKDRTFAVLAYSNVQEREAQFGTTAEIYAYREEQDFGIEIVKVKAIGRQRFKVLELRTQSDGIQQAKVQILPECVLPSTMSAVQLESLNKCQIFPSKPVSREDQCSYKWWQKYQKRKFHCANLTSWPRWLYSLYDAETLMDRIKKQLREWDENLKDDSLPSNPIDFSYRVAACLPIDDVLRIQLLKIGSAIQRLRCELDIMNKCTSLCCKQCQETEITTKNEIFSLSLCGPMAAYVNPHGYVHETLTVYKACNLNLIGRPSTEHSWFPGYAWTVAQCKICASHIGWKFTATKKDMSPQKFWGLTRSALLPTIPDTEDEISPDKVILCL

Broadly, the inhibition is how much of the control response was suppressed. In turn, `C[C@@H]1CN(CC2CN(c3ccc4c(c3)C(=O)N(C3CCC(=O)NC3=O)C4=O)C2)CCN1CC1CCN(c2ccc(NC(=O)C3CCN(c4ccc(C#N)c(C(F)(F)F)c4)CC3)nc2)CC1` (stereo partly drawn) [Example 24, 1-(4-cyano-3-(trifluoromethyl)phenyl)-N-(5-(4-(((2R)-4-((1-(2-(2,6-dioxopiperidin-3-yl)-1,3-dioxoisoindolin-5-yl)azetidin-3-yl)methyl)-2-methylpiperazin-1-yl)methyl)piperidin-1-yl)pyridin-2-yl)piperidine-4-carboxamide] came in with an inhibition at 0.01 µM of 53%, an inhibition at 0.1 µM of 96% and an inhibition at 1 µM of 95%.

For the molecule `C[C@@H]1CN(CC2CCN(c3ccc(NC(=O)C4CCN(c5ccc(C#N)c(C(F)(F)F)c5)CC4)nc3)CC2)CCN1CC1CCN(c2ccc3c(c2)C(=O)N(C2CCC(=O)NC2=O)C3=O)CC1` (stereo partly drawn) [Example 25, 1-(4-cyano-3-(trifluoromethyl)phenyl)-N-(5-(4-(((3R)-4-((1-(2-(2,6-dioxopiperidin-3-yl)-1,3-dioxoisoindolin-5-yl)piperidin-4-yl)methyl)-3-methylpiperazin-1-yl)methyl)piperidin-1-yl)pyridin-2-yl)piperidine-4-carboxamide], testing at 0.01 µM gave an inhibition of 73%, testing at 0.1 µM gave an inhibition of 98% and at 1 µM the inhibition was 98%.

For the molecule `C[C@@H]1CN(CC2CCN(c3ccc(NC(=O)C4CCN(c5ccc(C#N)c(C(F)(F)F)c5)CC4)nc3)CC2)CCN1CC1CN(c2ccc3c(c2)C(=O)N(C2CCC(=O)NC2=O)C3=O)C1` (stereo partly drawn) [Example 26, 1-(4-cyano-3-(trifluoromethyl)phenyl)-N-(5-(4-(((3R)-4-((1-(2-(2,6-dioxopiperidin-3-yl)-1,3-dioxoisoindolin-5-yl)azetidin-3-yl)methyl)-3-methylpiperazin-1-yl)methyl)piperidin-1-yl)pyridin-2-yl)piperidine-4-carboxamide], testing at 0.01 µM gave an inhibition of 75%, the inhibition at 0.1 µM was determined as 98% and at 1 µM the inhibition was 98%.

`N#Cc1ccc(N2CCC(C(=O)Nc3ccc(N4CC(CN5CCN(CC6CCN(c7ccc8c(c7)C(=O)N(C7CCC(=O)NC7=O)C8=O)CC6)CC5)C4)cn3)CC2)cc1C(F)(F)F` (stereo not drawn) [Example 27, 1-(4-cyano-3-(trifluoromethyl)phenyl)-N-(5-(3-((4-((1-(2-(2,6-dioxopiperidin-3-yl)-1,3-dioxoisoindolin-5-yl)piperidin-4-yl)methyl)piperazin-1-yl)methyl)azetidin-1-yl)pyridin-2-yl)piperidine-4-carboxamide] gave an inhibition at 0.01 µM of 78%, an inhibition at 0.1 µM of 97% and an inhibition at 1 µM of 97%.

`N#Cc1ccc(N2CCC(C(=O)Nc3ccc(N4CC(CN5CCN(C[C@H]6CCN(c7ccc8c(c7)C(=O)N(C7CCC(=O)NC7=O)C8=O)C6)CC5)C4)cn3)CC2)cc1C(F)(F)F` (stereo partly drawn) [Example 28, 1-(4-cyano-3-(trifluoromethyl)phenyl)-N-(5-(3-((4-(((3R)-1-(2-(2,6-dioxopiperidin-3-yl)-1,3-dioxoisoindolin-5-yl)pyrrolidin-3-yl)methyl)piperazin-1-yl)methyl)azetidin-1-yl)pyridin-2-yl)piperidine-4-carboxamide]: 0.01 µM produced 82% inhibition, the inhibition at 0.1 µM was found to be 96% and the inhibition at 1 µM amounted to 95%.

On to `N#Cc1ccc(N2CCC(C(=O)Nc3ccc(N4CC(CN5CCN(C[C@@H]6CCN(c7ccc8c(c7)C(=O)N(C7CCC(=O)NC7=O)C8=O)C6)CC5)C4)cn3)CC2)cc1C(F)(F)F` (stereo partly drawn) [Example 29, 1-(4-cyano-3-(trifluoromethyl)phenyl)-N-(5-(3-((4-(((3S)-1-(2-(2,6-dioxopiperidin-3-yl)-1,3-dioxoisoindolin-5-yl)pyrrolidin-3-yl)methyl)piperazin-1-yl)methyl)azetidin-1-yl)pyridin-2-yl)piperidine-4-carboxamide], for which testing at 0.01 µM gave an inhibition of 80%, the inhibition at 0.1 µM amounted to 97% and the inhibition at 1 µM turned out to be 97%.

For `N#Cc1ccc(N2CCC(C(=O)Nc3ccc(N4CC(CN5CCN(CC6CN(c7ccc8c(c7)C(=O)N(C7CCC(=O)NC7=O)C8=O)C6)CC5)C4)cn3)CC2)cc1C(F)(F)F` (stereo not drawn) [Example 30, 1-(4-cyano-3-(trifluoromethyl)phenyl)-N-(5-(3-((4-((1-(2-(2,6-dioxopiperidin-3-yl)-1,3-dioxoisoindolin-5-yl)azetidin-3-yl)methyl)piperazin-1-yl)methyl)azetidin-1-yl)pyridin-2-yl)piperidine-4-carboxamide], the inhibition at 0.01 µM stood at 78%, at 0.1 µM the inhibition was 99% and 1 µM produced 97% inhibition.

In the case of `C[C@@H]1CN(CC2CN(c3ccc4c(c3)C(=O)N(C3CCC(=O)NC3=O)C4=O)C2)CCN1CC1CN(c2ccc(NC(=O)C3CCN(c4ccc(C#N)c(C(F)(F)F)c4)CC3)nc2)C1` (stereo partly drawn) [Example 31, 1-(4-cyano-3-(trifluoromethyl)phenyl)-N-(5-(3-(((2R)-4-((1-(2-(2,6-dioxopiperidin-3-yl)-1,3-dioxoisoindolin-5-yl)azetidin-3-yl)methyl)-2-methylpiperazin-1-yl)methyl)azetidin-1-yl)pyridin-2-yl)piperidine-4-carboxamide], the inhibition at 0.01 µM came out at 67%, the inhibition at 0.1 µM is 99% and the inhibition at 1 µM amounted to 97%.

Regarding `C[C@@H]1CN(CC2CN(c3ccc(NC(=O)C4CCN(c5ccc(C#N)c(C(F)(F)F)c5)CC4)nc3)C2)CCN1CC1CN(c2ccc3c(c2)C(=O)N(C2CCC(=O)NC2=O)C3=O)C1` (stereo partly drawn) [Example 32, 1-(4-cyano-3-(trifluoromethyl)phenyl)-N-(5-(3-(((3R)-4-((1-(2-(2,6-dioxopiperidin-3-yl)-1,3-dioxoisoindolin-5-yl)azetidin-3-yl)methyl)-3-methylpiperazin-1-yl)methyl)azetidin-1-yl)pyridin-2-yl)piperidine-4-carboxamide], 0.01 µM produced 62% inhibition, the inhibition at 0.1 µM was determined as 99% and the inhibition at 1 µM worked out at 99%.

`N#Cc1ccc(N2CCC(C(=O)Nc3ccc(N4CCC(CN5CCN(C6CN(c7ccc8c(n7)CN(C7CCC(=O)NC7=O)C8=O)C6)CC5)CC4)cn3)CC2)cc1C(F)(F)F` (stereo not drawn) [Example 33, 1-(4-cyano-3-(trifluoromethyl)phenyl)-N-(5-(4-((4-(1-(6-(2,6-dioxopiperidin-3-yl)-5-oxo-6,7-dihydro-5H-pyrrolo[3,4-b]pyridin-2-yl)azetidin-3-yl)piperazin-1-yl)methyl)piperidin-1-yl)pyridin-2-yl)piperidine-4-carboxamide] showed an inhibition at 0.01 µM of 54%, an inhibition at 0.1 µM of 90% and an inhibition at 1 µM of 72%.

With `N#Cc1ccc(N2CCC(C(=O)Nc3ccc(N4CCC(CN5CCN(CC6CCN(c7ccc8c(n7)CN(C7CCC(=O)NC7=O)C8=O)CC6)CC5)CC4)cn3)CC2)cc1C(F)(F)F` (stereo not drawn) [Example 34, 1-(4-cyano-3-(trifluoromethyl)phenyl)-N-(5-(4-((4-((1-(6-(2,6-dioxopiperidin-3-yl)-5-oxo-6,7-dihydro-5H-pyrrolo[3,4-b]pyridin-2-yl)piperidin-4-yl)methyl)piperazin-1-yl)methyl)piperidin-1-yl)pyridin-2-yl)piperidine-4-carboxamide], 0.01 µM produced 88% inhibition, 0.1 µM produced 99% inhibition and at 1 µM the inhibition was 96%.
